Measurements as given in ChEMBL document CHEMBL1201862, “PubChem BioAssay data set” (2004).
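Values below derive from 48-hour exposures of cells grown in 96-well plates, with endpoints linearly interpolated between the two concentrations bracketing the appropriate inhibition level. The concentration for 50% growth inhibition is given as GI50.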 Calls of active or inactive are those of the source. Rule as the data show it: active = GI50 up to about 1.1 µM and inactive = higher.

Legend:
Test in all cases: growth of human tumour cells (NCI), 48 h
[1] = system: SK-MEL-2
[2] = system: U-251
[3] = system: SK-OV-3
[4] = system: SNB-19
[5] = system: SN12C
[6] = system: A549
[7] = system: DMS-273
[8] = system: DMS-114
[9] = system: NCI-H522
[10] = system: SF-268
[11] = system: M14
[12] = system: A498
[13] = system: HCC 2998
[14] = system: KM-20L2
[15] = system: CAKI-1
[16] = system: OVCAR-8
[17] = system: HOP-62
[18] = system: MOLT-4
[19] = system: NCI-H226
[20] = system: COLO 205
[21] = system: 786-0
[22] = system: SR
[23] = system: SF-539
[24] = system: TK-10
[25] = system: KM12
[26] = system: HOP-18
[27] = system: RXF 631
[28] = system: SNB-78
[29] = system: RXF 393
[30] = system: UACC-62
[31] = system: RPMI-8226
[32] = system: EKVX
[33] = system: SK-MEL-5
[34] = system: UO-31
[35] = system: CCRF-CEM
[36] = system: OVCAR-4
[37] = system: M19-MEL
[38] = system: IGROV-1
[39] = system: K562
[40] = system: SNB-75
[41] = system: LXFL 529
[42] = system: HL-60
[43] = system: ACHN
[44] = system: SK-MEL-28
[45] = system: OVCAR-3
[46] = system: HCT-15
[47] = system: UACC-257
[48] = system: DLD-1
[49] = system: NCI-H460
[50] = system: SW-620
[51] = system: Malme-3M
[52] = system: HCT-116
[53] = system: NCI-H23
[54] = system: HT-29
[55] = system: SF-295
[56] = system: LOX IMVI
[57] = system: OVCAR-5

C=CCC12CCC(=O)C=C1CCC1(C2)OCCO1 (centres undefined)
GI50 [1]: > 100 µM (inactive)
GI50 [2]: > 100 µM (inactive)
GI50 [3]: > 100 µM (inactive)
GI50 [4]: > 100 µM (inactive)
GI50 [5]: > 100 µM (inactive)
GI50 [6]: > 100 µM (inactive)
GI50 [7]: > 100 µM (inactive)
GI50 [8]: > 100 µM (inactive)
GI50 [9]: > 100 µM (inactive)
GI50 [10]: > 100 µM (inactive)
GI50 [11]: > 100 µM (inactive)
GI50 [12]: > 100 µM (inactive)
GI50 [13]: > 100 µM (inactive)
GI50 [14]: > 100 µM (inactive)
GI50 [15]: > 100 µM (inactive)
GI50 [16]: > 100 µM (inactive)
GI50 [17]: > 100 µM (inactive)
GI50 [18]: > 100 µM (inactive)
GI50 [19]: > 100 µM (inactive)
GI50 [20]: > 100 µM (inactive)
GI50 [21]: > 100 µM (inactive)
GI50 [22]: > 100 µM (inactive)
GI50 [23]: > 100 µM (inactive)
GI50 [24]: > 100 µM (inactive)
GI50 [25]: > 100 µM (inactive)
GI50 [26]: > 100 µM (inactive)
GI50 [27]: > 100 µM (inactive)
GI50 [28]: > 100 µM (inactive)
GI50 [29]: > 100 µM (inactive)
GI50 [30]: > 100 µM (inactive)
GI50 [31]: > 100 µM (inactive)
GI50 [32]: > 100 µM (inactive)
GI50 [33]: > 100 µM (inactive)
GI50 [34]: > 100 µM (inactive)
GI50 [35]: 53.1 µM (inactive)
GI50 [36]: > 100 µM (inactive)
GI50 [37]: > 100 µM (inactive)
GI50 [38]: > 100 µM (inactive)
GI50 [39]: 55.2 µM (inactive)
GI50 [40]: > 100 µM (inactive)
GI50 [41]: > 100 µM (inactive)
GI50 [42]: 40.4 µM (inactive)
GI50 [43]: > 100 µM (inactive)
GI50 [44]: > 100 µM (inactive)
GI50 [45]: > 100 µM (inactive)
GI50 [46]: > 100 µM
GI50 [47]: > 100 µM (inactive)
GI50 [48]: > 100 µM (inactive)
GI50 [49]: > 100 µM (inactive)
GI50 [50]: > 100 µM (inactive)
GI50 [51]: > 100 µM (inactive)
GI50 [52]: > 100 µM (inactive)

COc1ccc2c3c([nH]c2c1[N+](=O)[O-])C(C)=NCC3
GI50 [1]: > 100 µM (inactive)
GI50 [53]: > 10 µM (inactive)
GI50 [54]: 56.8 µM (inactive)
GI50 [2]: > 100 µM (inactive)
GI50 [4]: > 100 µM (inactive)
GI50 [5]: 80.7 µM (inactive)
GI50 [6]: 77.4 µM (inactive)
GI50 [7]: 41.7 µM (inactive)
GI50 [8]: > 100 µM (inactive)
GI50 [9]: > 100 µM (inactive)
GI50 [10]: 20 µM (inactive)
GI50 [11]: > 100 µM (inactive)
GI50 [12]: 18.8 µM (inactive)
GI50 [13]: > 100 µM (inactive)
GI50 [14]: 69.3 µM (inactive)
GI50 [15]: 47.1 µM (inactive)
GI50 [16]: 62.7 µM (inactive)
GI50 [17]: > 100 µM (inactive)
GI50 [18]: 30.8 µM (inactive)
GI50 [19]: 51.8 µM (inactive)
GI50 [20]: 15.2 µM (inactive)
GI50 [21]: > 100 µM (inactive)
GI50 [22]: 40.4 µM (inactive)
GI50 [23]: 65.6 µM (inactive)
GI50 [24]: > 100 µM (inactive)
GI50 [25]: 89.3 µM (inactive)
GI50 [27]: > 100 µM (inactive)
GI50 [28]: > 100 µM (inactive)
GI50 [29]: > 100 µM (inactive)
GI50 [30]: 19.5 µM (inactive)
GI50 [31]: 39.7 µM (inactive)
GI50 [32]: > 100 µM (inactive)
GI50 [55]: 72.8 µM (inactive)
GI50 [34]: 98.4 µM (inactive)
GI50 [35]: 93.5 µM (inactive)
GI50 [36]: > 100 µM (inactive)
GI50 [38]: 20.9 µM (inactive)
GI50 [39]: 62.7 µM (inactive)
GI50 [40]: > 100 µM (inactive)
GI50 [41]: > 100 µM (inactive)
GI50 [56]: 50.9 µM (inactive)
GI50 [42]: > 100 µM (inactive)
GI50 [57]: 61 µM (inactive)
GI50 [43]: 52.6 µM (inactive)
GI50 [44]: > 100 µM (inactive)
GI50 [45]: > 100 µM (inactive)
GI50 [46]: > 100 µM
GI50 [47]: > 100 µM (inactive)
GI50 [48]: 99.1 µM (inactive)
GI50 [49]: 34.9 µM (inactive)
GI50 [50]: 53.1 µM (inactive)
GI50 [52]: 30.2 µM (inactive)
